Among the data in ChEMBL document CHEMBL1201862, “PubChem BioAssay data set” (2004) are IC50, EC50 and AC50 values, retold here.

Activity calls are given as the source filed them. Bounds are passed on as bounds.

As a reminder, the IC50 is the concentration at which inhibition is half-maximal. One may read the EC50 as the concentration needed to bring the measured effect to its halfway point. The AC50 is the concentration giving half of the maximal activity seen.

Test [1] concerns the target Eukaryotic translation initiation factor 4E (Mus musculus, UniProt P63073). The experiment in a line: eIF4E–eIF4G protein interaction inhibitors, dose response, biochemical, TR-FRET (AID 855).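 Note: potency for disrupting eIF4E binding to eIF4GI seen as loss of FRET.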 The test is classed as functional. (TR-FRET usually uses a lanthanide donor and a delayed reading to cut background.)
Test [2] concerns HEK293. The experiment in a line: cells. The conditions noted are these: Homo sapiens. The test is classed as functional, cell-based.
For test [3], the system named is HEK293. The experiment in a line: cells. The test is classed as functional, cell-based. The conditions noted are these: Homo sapiens. The source holds these as a separate data set.
The target in test [4] is T1, SUMO-activating enzyme (Homo sapiens, UniProt Q9UBT2). Description: SUMOylation inhibitor hit validation, confirmation, SUMOylation inhibitor project, biochemical, AlphaScreen (AID 2018). The test is classed as functional. A general note: Alpha assays give light when donor and acceptor beads are brought close together.
T1 sequence (Q9UBE0 whole entry): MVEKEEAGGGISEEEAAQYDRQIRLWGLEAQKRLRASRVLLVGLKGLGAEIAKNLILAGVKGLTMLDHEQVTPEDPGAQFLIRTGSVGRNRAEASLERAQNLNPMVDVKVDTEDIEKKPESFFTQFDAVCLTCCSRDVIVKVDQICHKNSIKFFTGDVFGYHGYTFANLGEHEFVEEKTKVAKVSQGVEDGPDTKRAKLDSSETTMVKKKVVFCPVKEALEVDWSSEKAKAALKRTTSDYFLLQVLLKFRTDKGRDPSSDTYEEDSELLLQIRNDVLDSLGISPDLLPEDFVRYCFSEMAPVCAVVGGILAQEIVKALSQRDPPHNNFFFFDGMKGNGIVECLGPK
T1 sequence (Q9UBT2 whole entry): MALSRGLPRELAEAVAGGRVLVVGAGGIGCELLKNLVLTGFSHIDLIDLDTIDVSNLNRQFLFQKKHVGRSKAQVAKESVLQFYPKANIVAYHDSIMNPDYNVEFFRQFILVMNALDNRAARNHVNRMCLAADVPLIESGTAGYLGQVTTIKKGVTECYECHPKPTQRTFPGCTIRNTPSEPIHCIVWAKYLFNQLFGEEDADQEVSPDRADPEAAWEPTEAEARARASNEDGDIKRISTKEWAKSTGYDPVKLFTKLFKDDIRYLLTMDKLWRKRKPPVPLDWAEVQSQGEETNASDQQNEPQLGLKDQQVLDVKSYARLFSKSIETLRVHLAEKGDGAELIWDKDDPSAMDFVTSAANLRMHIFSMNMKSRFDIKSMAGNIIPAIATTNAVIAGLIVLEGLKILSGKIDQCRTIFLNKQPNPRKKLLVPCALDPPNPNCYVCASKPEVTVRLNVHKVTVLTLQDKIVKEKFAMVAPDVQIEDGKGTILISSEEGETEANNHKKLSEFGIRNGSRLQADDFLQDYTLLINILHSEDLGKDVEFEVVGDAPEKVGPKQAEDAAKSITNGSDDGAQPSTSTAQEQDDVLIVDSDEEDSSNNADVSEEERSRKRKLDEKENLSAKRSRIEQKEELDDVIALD
Test [5] addresses T1, SUMO-activating enzyme. The experiment in a line: inhibitors of in vitro SUMOylation cascade, primary screen, biochemical, HTRF, uHTS (AID 2006). The test is classed as protein-complex assay.
Test [6] relates to HEK293. Description: NOD2 signaling inhibitors in MDP-stimulated cells, cell-based, uHTS, luminescence (AID 2001). The conditions noted are these: Homo sapiens. The test is classed as functional.
The test system of test [7] is HEK293. Description: NOD1 signaling inhibitors, primary screen, cell-based, luminescence, uHTS (AID 1578). The settings on record: Homo sapiens. The test is classed as functional.
Test [8] has as its target ATP-dependent molecular chaperone HSP82 (Candida albicans (strain WO-1) (Yeast), UniProt C4YTQ8). Description: loss of DOC-induced GRE-beta-galactosidase reporter signal, dose response, Hsp90 inhibitor project, S. cerevisiae, luminescence (AID 2400).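 Note: beta-galactosidase luminescence from glucocorticoid response element reporter as proxy for Hsp90 function; inhibitor potency where signal loss means Hsp90 inhibition.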 Format: functional, cell-based.
Test [9] in a line: NIH-3T3 fibroblast cytotoxicity, dose response, cytotoxicity control, cell-based, fluorescence, Alamar Blue, secondary assay (AID 2327).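 Note: NIH-3T3 mouse fibroblasts cultured with fluconazole at 8 µg/mL.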 The test is classed as functional. Background: Alamar Blue is a resazurin reagent that responds to reducing activity.
For the next test, the target named is Aminopeptidase N (Plasmodium falciparum FcB1/Columbia, UniProt O96935). Description: P. falciparum M1AAP inhibitors, biochemical, fluorogenic H-Leu-NHMec substrate, 1536-well (AID 1445). The arrangement: species or system Plasmodium falciparum 3D7, 3D7.
Sequence of Aminopeptidase N (O96935 whole entry): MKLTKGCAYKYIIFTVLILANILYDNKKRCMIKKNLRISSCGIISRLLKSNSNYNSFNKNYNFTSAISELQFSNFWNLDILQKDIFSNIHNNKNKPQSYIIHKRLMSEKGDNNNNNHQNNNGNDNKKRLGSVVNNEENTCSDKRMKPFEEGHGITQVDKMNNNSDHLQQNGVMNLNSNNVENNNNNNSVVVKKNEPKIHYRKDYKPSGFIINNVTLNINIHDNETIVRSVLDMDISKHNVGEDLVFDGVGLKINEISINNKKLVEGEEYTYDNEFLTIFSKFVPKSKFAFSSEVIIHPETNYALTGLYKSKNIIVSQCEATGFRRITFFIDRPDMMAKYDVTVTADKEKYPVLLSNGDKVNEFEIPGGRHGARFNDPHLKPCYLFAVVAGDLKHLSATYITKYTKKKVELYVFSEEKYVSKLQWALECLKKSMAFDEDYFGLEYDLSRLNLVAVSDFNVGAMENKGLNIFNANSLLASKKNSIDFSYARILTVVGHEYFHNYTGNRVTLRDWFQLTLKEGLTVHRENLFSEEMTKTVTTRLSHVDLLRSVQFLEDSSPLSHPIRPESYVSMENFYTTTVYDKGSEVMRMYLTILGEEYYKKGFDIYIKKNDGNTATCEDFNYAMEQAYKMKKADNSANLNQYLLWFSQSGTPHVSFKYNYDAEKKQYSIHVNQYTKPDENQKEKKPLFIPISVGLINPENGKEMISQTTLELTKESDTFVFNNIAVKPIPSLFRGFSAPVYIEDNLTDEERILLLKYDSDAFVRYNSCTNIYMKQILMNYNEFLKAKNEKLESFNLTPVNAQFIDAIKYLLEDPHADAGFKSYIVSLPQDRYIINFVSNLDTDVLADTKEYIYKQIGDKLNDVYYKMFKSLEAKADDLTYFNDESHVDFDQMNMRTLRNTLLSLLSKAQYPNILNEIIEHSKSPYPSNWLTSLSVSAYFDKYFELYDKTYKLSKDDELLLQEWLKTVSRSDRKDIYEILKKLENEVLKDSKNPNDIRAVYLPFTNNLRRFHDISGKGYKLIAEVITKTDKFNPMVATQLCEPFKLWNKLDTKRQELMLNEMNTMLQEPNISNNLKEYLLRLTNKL
Test [10] deals with T2, Serine/threonine-protein phosphatase (Candida dubliniensis (strain CD36 / CBS 7987 / NCPF 3949 / NRRLY-17841) (Yeast), UniProt B9W6M3).
T2 sequence (B9W6M3 whole entry): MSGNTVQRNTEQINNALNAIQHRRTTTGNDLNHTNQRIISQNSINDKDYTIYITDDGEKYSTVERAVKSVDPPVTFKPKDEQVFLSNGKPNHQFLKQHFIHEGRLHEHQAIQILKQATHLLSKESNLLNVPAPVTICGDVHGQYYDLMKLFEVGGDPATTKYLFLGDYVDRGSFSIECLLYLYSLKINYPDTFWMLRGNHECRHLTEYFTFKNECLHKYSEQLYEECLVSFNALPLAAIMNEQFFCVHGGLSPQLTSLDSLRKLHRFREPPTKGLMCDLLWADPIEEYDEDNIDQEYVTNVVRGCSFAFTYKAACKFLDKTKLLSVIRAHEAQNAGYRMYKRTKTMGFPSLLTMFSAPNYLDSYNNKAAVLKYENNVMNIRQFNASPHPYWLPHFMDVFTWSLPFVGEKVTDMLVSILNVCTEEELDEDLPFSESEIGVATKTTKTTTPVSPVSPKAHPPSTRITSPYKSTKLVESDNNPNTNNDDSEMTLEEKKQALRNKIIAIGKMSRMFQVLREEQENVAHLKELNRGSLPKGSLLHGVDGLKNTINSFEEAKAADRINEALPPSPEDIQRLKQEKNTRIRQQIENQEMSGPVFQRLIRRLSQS
The experiment in a line: calcineurin pathway inhibitors in yeast reporter, dose response, S. cerevisiae, CDRE-lacZ, luminescence, secondary (AID 2388).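 Note: yeast reporter cells carrying a calcineurin-responsive lacZ construct stimulated with calcium chloride; luminescent beta-galactosidase reporter signal in whole cells rather than isolated phosphatase activity; potency for inhibition where a drop in reporter signal means calcineurin blockade.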 The test is classed as functional, cell-based.

The nature of test [11]: C. albicans growth with fluconazole, confirmation, fluorescence, retest (AID 2467). Format: functional, cell-based.
Test [12] is described as follows: cytotoxicity toward NIH3T3 fibroblasts, dose response, counter-screen, cell-based, ATP luminescence, mouse fibroblasts (AID 2010).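 Note: cells exposed to compound for about 90 hours before reading.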 The test is classed as functional.
Test [13] is described as follows: growth suppression of beta-catenin-knockout colon cells, dose response, cell-based, HCT116, human colon tumor (AID 1045).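 Note: HCT116 colon tumor cells with beta catenin knocked out; cells exposed to compound for 60 hours.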 The test is classed as functional.
For test [14], the target named is Sphingosine 1-phosphate receptor 1 (Homo sapiens, UniProt P21453). Format: functional.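 Note: Tango beta-arrestin reporter U2OS cells stimulated with S1P near its EC80; inhibitor potency meaning antagonism of receptor activation by the natural agonist.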
The nature of test [15]: growth suppression of PTEN-null colon cells, dose response, cell-based, HCT116 PTEN knockout (AID 1047).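 Note: HCT116 colon tumor cells with PTEN knocked out; cells exposed to compound for 60 hours before readout; potency for loss of cell viability measured by luminescence.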 Format: functional.
The target in test [16] is G-protein coupled receptor 35 (Homo sapiens, UniProt Q9HC97). Description: GPR35 antagonists blocking zaprinast-driven arrestin recruitment, primary screen, imaging, U2OS, beta-arrestin-GFP, zaprinast agonist (AID 2058).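 Note: antagonist potency meaning inhibition of agonist-induced arrestin redistribution.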 Format: functional.
Test [17] addresses T3, Sphingosine 1-phosphate receptor 4 (Homo sapiens, UniProt O95977).
T3 sequence (O95977 whole entry): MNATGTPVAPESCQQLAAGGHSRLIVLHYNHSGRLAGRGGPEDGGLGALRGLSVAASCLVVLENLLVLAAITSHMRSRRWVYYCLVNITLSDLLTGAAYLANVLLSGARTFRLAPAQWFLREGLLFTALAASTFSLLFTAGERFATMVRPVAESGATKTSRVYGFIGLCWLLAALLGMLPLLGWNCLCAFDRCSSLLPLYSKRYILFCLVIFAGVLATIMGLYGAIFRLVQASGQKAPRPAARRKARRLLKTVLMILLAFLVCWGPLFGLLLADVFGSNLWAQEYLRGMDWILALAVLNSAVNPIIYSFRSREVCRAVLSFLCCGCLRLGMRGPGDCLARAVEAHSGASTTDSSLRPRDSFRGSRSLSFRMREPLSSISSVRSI
The experiment in a line: Fluorescence dose response cell-based high throughput screening assay for antagonists of the Sphingosine 1-Phosphate Receptor 4 (S1P4). [Related pubchem assays: 1524 (Confirmation in triplicates.), 1510 (Primary screen.)]. Format: functional.

The nature of test [18]: inhibitors of intracellular T. cruzi replication, confirmation, NIH3T3 host cells, beta-gal luminescence (AID 2044).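 Note: intracellular parasites grown in NIH/3T3 mouse fibroblasts as host cells; luminescent beta-galactosidase reporter signal from transgenic T. cruzi replicating inside host cells; inhibitors lower the luminescence signal.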 The test is classed as functional, cell-based.
Test [19] addresses Eukaryotic translation initiation factor 4H (Homo sapiens, UniProt Q15056). Description: human eIF4H binding inhibitors, primary screen, translation initiation inhibitor project, biochemical, uHTS, fluorescence polarization (AID 2012).
Test [20] has as its target Polyadenylate-binding protein 1 (Homo sapiens, UniProt P11940). The experiment in a line: PABP poly(A) RNA binding inhibitors, primary screen, biochemical, fluorescence polarization, uHTS (AID 2014).
Test [21] concerns the target Melanin-concentrating hormone receptor 1 (Homo sapiens, UniProt Q99705). Description: Fluorescence-based counterscreen for antagonists of the G-protein coupled receptor 7 (GPR7): cell-based high throughput dose response assay to identify antagonists of the melanin-concentrating hormone receptor 1 (MCHR1). The test is classed as functional.
The next test concerns the target Cytochrome P450 3A4 (Homo sapiens, UniProt P08684). The conditions noted are these: Potency.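 Note: confirmatory qHTS run detecting inhibitors and substrates of CYP3A4.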
The next test concerns the target Cytochrome P450 2C9 (Homo sapiens, UniProt P11712). The settings on record: Potency.
Test [22] addresses T4, Mannose-6-phosphate isomerase (Homo sapiens, UniProt P34949).
T4 sequence (P34949 whole entry): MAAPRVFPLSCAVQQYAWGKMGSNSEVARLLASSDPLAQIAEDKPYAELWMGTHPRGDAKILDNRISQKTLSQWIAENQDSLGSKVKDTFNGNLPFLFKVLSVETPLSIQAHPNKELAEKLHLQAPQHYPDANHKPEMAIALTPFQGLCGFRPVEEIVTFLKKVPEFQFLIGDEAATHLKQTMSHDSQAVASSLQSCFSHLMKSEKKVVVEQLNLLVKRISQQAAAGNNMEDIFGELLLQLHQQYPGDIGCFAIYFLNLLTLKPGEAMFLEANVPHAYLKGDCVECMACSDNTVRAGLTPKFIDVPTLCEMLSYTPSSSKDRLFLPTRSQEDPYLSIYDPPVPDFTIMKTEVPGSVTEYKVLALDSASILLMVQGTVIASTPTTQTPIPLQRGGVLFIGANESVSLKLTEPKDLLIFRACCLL
Description: human PMI inhibitors, high substrate, primary screen, biochemical, fluorescence intensity, high mannose 6-phosphate (AID 1220).

Sequence of Polyadenylate-binding protein 1 (P11940 whole entry): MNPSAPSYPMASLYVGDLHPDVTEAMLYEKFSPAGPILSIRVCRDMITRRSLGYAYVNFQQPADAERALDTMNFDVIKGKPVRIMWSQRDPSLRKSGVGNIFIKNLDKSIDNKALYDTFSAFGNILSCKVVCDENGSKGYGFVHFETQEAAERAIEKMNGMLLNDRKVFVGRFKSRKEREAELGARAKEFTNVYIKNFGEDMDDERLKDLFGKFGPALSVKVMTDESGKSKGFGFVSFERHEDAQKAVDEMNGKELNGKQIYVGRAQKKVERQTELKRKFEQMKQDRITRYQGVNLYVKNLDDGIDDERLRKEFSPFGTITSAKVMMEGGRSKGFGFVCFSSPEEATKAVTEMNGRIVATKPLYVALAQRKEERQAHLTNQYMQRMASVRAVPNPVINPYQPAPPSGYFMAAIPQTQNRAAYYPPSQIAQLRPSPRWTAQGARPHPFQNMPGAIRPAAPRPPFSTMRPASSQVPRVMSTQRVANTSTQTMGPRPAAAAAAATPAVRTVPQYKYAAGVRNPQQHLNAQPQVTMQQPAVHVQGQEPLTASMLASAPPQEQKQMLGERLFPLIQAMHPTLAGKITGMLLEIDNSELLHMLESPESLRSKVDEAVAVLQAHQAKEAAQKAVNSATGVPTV
Sequence of Cytochrome P450 3A4 (P08684 whole entry): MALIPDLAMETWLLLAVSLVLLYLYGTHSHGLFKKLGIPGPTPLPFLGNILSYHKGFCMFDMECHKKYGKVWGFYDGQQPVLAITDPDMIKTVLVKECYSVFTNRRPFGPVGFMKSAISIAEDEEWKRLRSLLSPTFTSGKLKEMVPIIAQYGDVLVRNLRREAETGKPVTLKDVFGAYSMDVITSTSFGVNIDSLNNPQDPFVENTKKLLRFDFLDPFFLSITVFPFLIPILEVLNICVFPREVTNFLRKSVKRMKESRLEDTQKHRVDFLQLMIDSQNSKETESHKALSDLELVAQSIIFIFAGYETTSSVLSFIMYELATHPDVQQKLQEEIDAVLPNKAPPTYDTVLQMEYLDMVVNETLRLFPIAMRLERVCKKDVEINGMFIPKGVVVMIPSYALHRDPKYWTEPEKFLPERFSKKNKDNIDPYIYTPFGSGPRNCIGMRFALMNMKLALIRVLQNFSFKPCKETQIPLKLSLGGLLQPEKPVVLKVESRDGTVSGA
Sequence of Melanin-concentrating hormone receptor 1 (Q99705 whole entry): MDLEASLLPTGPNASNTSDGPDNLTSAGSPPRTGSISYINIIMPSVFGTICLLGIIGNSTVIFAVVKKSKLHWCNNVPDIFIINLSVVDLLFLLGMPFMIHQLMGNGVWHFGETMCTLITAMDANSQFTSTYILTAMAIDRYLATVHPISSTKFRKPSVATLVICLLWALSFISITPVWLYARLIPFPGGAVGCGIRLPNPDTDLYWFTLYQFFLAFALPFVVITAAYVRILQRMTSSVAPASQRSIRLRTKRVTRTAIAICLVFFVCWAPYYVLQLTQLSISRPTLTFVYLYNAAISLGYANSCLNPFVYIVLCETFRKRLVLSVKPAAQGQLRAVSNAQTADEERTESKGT
Sequence of ATP-dependent molecular chaperone HSP82 (C4YTQ8 whole entry): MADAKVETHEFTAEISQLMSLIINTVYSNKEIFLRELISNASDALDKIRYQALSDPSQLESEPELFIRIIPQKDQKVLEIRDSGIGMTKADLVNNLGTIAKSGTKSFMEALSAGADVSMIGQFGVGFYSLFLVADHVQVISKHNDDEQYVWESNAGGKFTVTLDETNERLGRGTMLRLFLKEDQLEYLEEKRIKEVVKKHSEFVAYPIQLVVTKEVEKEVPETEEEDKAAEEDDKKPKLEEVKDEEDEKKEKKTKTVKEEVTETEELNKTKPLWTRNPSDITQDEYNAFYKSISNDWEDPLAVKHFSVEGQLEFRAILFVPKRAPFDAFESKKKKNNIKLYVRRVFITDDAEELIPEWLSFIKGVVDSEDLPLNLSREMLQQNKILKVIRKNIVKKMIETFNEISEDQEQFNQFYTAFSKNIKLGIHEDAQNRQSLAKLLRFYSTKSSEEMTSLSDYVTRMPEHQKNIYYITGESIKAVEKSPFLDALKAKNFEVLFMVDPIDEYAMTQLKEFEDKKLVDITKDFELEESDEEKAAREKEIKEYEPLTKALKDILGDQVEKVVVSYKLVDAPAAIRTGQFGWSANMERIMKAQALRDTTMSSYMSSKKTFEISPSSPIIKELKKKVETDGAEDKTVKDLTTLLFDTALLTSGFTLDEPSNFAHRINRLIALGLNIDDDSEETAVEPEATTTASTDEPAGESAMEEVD
Sequence of Eukaryotic translation initiation factor 4E (P63073 whole entry): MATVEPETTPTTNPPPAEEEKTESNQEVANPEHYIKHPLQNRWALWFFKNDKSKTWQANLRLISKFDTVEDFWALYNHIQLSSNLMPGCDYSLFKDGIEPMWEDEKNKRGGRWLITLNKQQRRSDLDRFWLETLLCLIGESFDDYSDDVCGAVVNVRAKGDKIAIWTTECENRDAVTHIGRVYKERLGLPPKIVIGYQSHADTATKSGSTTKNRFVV

Turning to `COC(=O)c1c(C)cc(OC(C)=O)c(C)c1OC(C)=O`, the IC50 in test [1] is > 64 µM (inactive).

`Cc1ccc(/C=C2/SC(=S)N(c3ccc(S(=O)(=O)Nc4nccs4)cc3)C2=O)cc1`: the concentration for half-maximal inhibition (IC50) is 17.8 µM (active) in the test on HEK293 [2]; > 20 µM (inactive) with HEK293 [3]; 1.58 µM (active) at SUMO-activating enzyme [4]; 38.6 µM (active) on SUMO-activating enzyme [5]; 14.2 µM (inactive) in the test with HEK293 [6]. Further, in the test with HEK293 [7], the EC50 is > 20 µM (inactive).

As for `CCn1c(O)c(N=NC(=O)c2cccs2)c2ccccc21`, the 50% effective concentration (EC50) in [8] was 31.2 µM (active); in test [9], 43.6 µM (active); in test [10], > 180 µM (inactive); in test [11], 1.09 µM (active). Further, on Aminopeptidase N, the concentration for half-maximal inhibition (IC50) is 70.2 µM (active).

For the molecule `COc1cc(/C=C(/C)[N+](=O)[O-])ccc1OCc1ccccc1Cl`, the EC50 in test [12] is 9.08 µM (active); in test [13] it was 8.05 µM (active); in test [15] it was 8.96 µM (active); in [18] it was 2.07 µM (active). Besides, the values for the IC50 in test [14], in test [16] and in [17] were 7.64 µM (active), 2.45 µM (active) and 727 nM (active), respectively.

On to `CCn1c(SCC(=O)N/N=C/C=C\c2ccco2)nc2ccccc21`, for which the IC50 is 12.3 µM (active) in test [19] and 68.8 µM (active) in test [20].

Regarding `CN1CCN(c2ccccc2NC(=O)Cc2ccc(Cl)cc2)CC1`, the IC50 in [21] is on record as 36 µM (not active).

Take `CCOC(=O)OCC1OC(C#Cc2ccc(Br)cc2)C=CC1OC(=O)OCC` (configuration not stated): the AC50 at Cytochrome P450 3A4 was 3.98 µM (inconclusive); on Cytochrome P450 2C9, 2.51 µM (inconclusive).

In the case of `CCN1CCc2c(C#N)c(NCc3ccccc3)nc(NCCO)c2C1`, the IC50 was > 100 µM (inactive) in test [19], > 100 µM (inactive) in test [20] and > 50 µM (not active) in [22].
